Data reported in patent publication US20030012780A1, “Anti-inflammatory medicaments” (Karolinska Innovation AB, priority 1998, published 2003).

Columns and labels:
[1] = system: PAF-stimulated PMN locomotion in the rat mesentery; test: Intravital time lapse videomicroscopy of PMN locomotion in rat mesentery in vivo; details: PAF 10^-7 M
Procedure: Intravital time lapse videomicroscopy of PMN locomotion in vivo. PMN locomotion in rat mesenteric tissue was studied through use of intravital time lapse videomicroscopy according to the protocol previously described in detail (Werr et al., supra). In brief, Wistar rats (200-250 g) were anesthetized with equal parts of fluanison/fentanyl (10/0.2 mg/ml; Hypnorm; Janssen-Cilag Ltd., Saunderton, UK) and midazolam (5 mg/ml; Dormicum; Hoffman-La Roche, Basel, Switzerland) diluted 1:1 with sterile water (2 ml/kg i.m.). Body temperature was maintained at 37° C. by a heating pad connected to a rectal thermistor. After laparotomy, a segment of the ileum was exposed on a heated transparent pedestal to allow microscopic observation of the mesenteric microvasculature (Orthoplan microscope equipped with water immersion lens SW×25, NA 0.60; Leitz, Wetzlar, Germany). The microscopic image was televised and recorded on time lapse video (at 1/7 of normal speed). Analysis of leukocyte migration in the mesenteric tissue was made off line and the migration path of individual leukocytes was tracked with a digital image analyzer.
Leukocyte extravasation and migration was induced by soaking the exposed mesentery with 5 ml bicarbonate buffer solution (37° C.) containing PAF at a concentration of 10^−7 M. The tissue was then covered with a transparent plastic film to provide continues chemotactic stimulation by PAF. After 40 min of chemotactic stimulation, when numerous leukocytes had extravasated, time lapse recording of leukocyte migration was undertaken, first for 20 min to assess basal migration rates in response to PAF stimulation, and then for additional 40 min in the presence of PAF together with antibodies or peptides. The antibody concentration in the mixture administered to the tissue was for all antibodies 100 μg/ml. The peptide DGEA was similarly administered at a concentration of 25 mM and SLIDIP/RGDGW at a concentration of 500 μM. Due to dilution of the reagent in fluid covering the tissue these seemingly high doses, ˜10 times the documented effective blocking dose, were chosen in order to reach a sufficient concentration in proximity of the migrating leukocytes in the tissue. […] As previously documented, more than 85% of the migrating cells were neutrophils (Werr et al., supra).

[2] = system: fMLP-stimulated human PMN locomotion in collagen (type I) gels; test: PMN migration in gels of collagen (type I); assay type: cell-based; details: fMLP 10^-7 M; DGEA 5 mM; 30 min at 37° C.
Procedure: PMN migration in gels of collagen (type I) and gelatin. Gels were formed in 24-well culture dishes (250 μl/well) by mixing 8.5 volumes of rat collagen solution or bovine gelatin solution (Sigma) at a concentration of 1.5 mg/ml with 1 volume of ×10 MEM (Life Technologies, Gaithersburg, Md.) and 0.5 volume of 4.4% NaHCO3 and fMLP (final concentration 10^−7 M). Purified human PMN (0.5×106), suspended in 200 μl of MEM containing 10^−9 fMLP were placed on top of the gels and incubated with or without mAb:s or peptides for 30 min at 37° C. The final concentration was for all mAb:s 20 μg/ml, for DGEA 5 mM and for SLIDIP/RGDGW 100 μM. Four to six experiments were run in duplicate gels for each reagent tested and ten randomly chosen microscopic fields (with a defined area of 0.0625 mm) were analyzed in each gel. The migration of PMN into the gel was analyzed with an Leitz Orthoplan microscope equipped with a water immersion lens (Leitz UO×55W, NA 0.80) by focusing down through the gel. The calibrated micrometer scale in the fine focus adjustment was used to determine the migration distance of individual PMN from the upper gel surface. The average migration distance of the three leading cells in each field was calculated and defined as the migration distance of the leading front.

[3] = ten-fold higher concentrations of SLIDIP/RGDGW in some experiments

| Substance | effect on PMN migration (in words) [1, 3] | effect on PMN migration (in words) ([1]; topical SLIDIP/RGDGW 500 μM) | inhibition of PMN migration velocity ([1]; topical DGEA 25 mM, p<0.001) [%] | migration distance of the leading front in collagen gels (in words) [2] |
| --- | --- | --- | --- | --- |
| SLIDIP | did not yield different effects | without effect | – | – |
| ACRGDGWMCG | did not yield different effects | without effect | – | – |
| DGEA | – | – | 70±10 | to the level of non-stimulated cells |
